According to ChEMBL document CHEMBL5385852, “Structural optimization and biological evaluation of 1-adamantylcarbonyl-4-phenylpiperazine derivatives as FXR agonists for NAFLD” (Eur J Med Chem, 2023):
Calls of active or inactive are those of the source. No cut-off for these calls is given here.

Key:
[1] = system: Mus musculus; assay: Anti-hyperlipidemic activity in high fat diet induced obese C57BL/6J mouse model assessed as decrease in hepatic low density lipoprotein cholesterol level at 200 mg/kg; type: functional, organism-based
[2] = system: Mus musculus; assay: Anti-hyperlipidemic activity in high fat diet induced obese C57BL/6J mouse model assessed as decrease in total cholesterol level at 200 mg/kg; type: functional, organism-based
[3] = system: Mus musculus; assay: Anti-hyperlipidemic activity in high fat diet induced obese C57BL/6J mouse model assessed as decrease in hepatic triglyceride level at 200 mg/kg; type: functional, organism-based
[4] = system: Mus musculus; assay: Anti-hyperlipidemic activity in high fat diet induced obese C57BL/6J mouse model assessed as improvement in insulin sensitivity at 200 mg/kg by insulin tolerance test; type: functional, organism-based
[5] = system: Mus musculus; assay: Anti-hyperlipidemic activity in high fat diet induced obese C57BL/6J mouse model assessed as decrease in hepatic total cholesterol level at 200 mg/kg; type: functional, organism-based
[6] = target: T1, Bile acid receptor (Homo sapiens, UniProt Q96RI1); assay: Agonist activity at Gal4-fused FXR LBD (unknown origin) transfected in HEK293T cells co-transfected with Peak12-Gal4UAS-luciferase reporter assessed as receptor transactivation incubated for 24 hrs by firefly luciferase assay; type: cell-based
T1 sequence (Q96RI1 whole entry): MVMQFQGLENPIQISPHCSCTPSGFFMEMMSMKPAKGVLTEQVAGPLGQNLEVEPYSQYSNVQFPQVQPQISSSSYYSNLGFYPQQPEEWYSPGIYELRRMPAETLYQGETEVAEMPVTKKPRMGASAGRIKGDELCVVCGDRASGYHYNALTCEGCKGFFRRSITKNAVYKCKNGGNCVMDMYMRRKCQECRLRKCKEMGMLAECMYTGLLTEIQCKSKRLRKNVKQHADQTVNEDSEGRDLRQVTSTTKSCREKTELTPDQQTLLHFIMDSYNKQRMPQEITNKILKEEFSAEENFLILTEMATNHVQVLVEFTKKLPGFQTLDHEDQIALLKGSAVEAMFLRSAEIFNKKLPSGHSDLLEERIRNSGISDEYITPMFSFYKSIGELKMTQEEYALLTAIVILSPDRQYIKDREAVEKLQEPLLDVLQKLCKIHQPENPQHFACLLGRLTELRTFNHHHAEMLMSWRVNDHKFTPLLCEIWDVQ

| EC50 [6] [µM] | SMILES | Activity [1] | Activity [2] | Activity [3] | Activity [4] | Activity [5] |
| --- | --- | --- | --- | --- | --- | --- |
| – | Cc1ccc(Cl)cc1N1CCN(C(=O)C23CC4CC(CC(C4)C2)C3)CC1 | inactive | inactive | Active | inactive | inactive |
| 2.14 | O=C(N1CCN(c2cc(Cl)ccc2O)CC1)C12CC3CC(CC(C3)C1)C2 | – | – | – | – | – |
